Source: PubChem BioAssay AID743442 (Broad Institute, 2014)
Active and inactive are the calls of the source.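 Rule for the calls: active = cell-killing curve, signal falling, whose fitted AC50 is at most twice the top tested dose; inconclusive = flat fit with a moderate signal drop, or a poor fit; inactive = the rest.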

Tests used:
[1] = ATP-based viability loss in HEK293T cells – cell-based, CellTiter-Glo luminescence, dry powder samples, set 14, cytotoxicity control, dose response (AID 743442); details: HEK293T viability, ATP luminescence (CellTiter-Glo), 72 h
[2] = test system: HEK293T viability, ATP luminescence (CellTiter-Glo), 72 h; experiment: as above

## CC(C)NC(=O)CSc1c2c(nc3ccc(Cl)cc13)CCCC2
[1]; at 26 µM (top of the series)
  activity change, negative = cytotoxicity: -3.4% (inactive)

## O=C(CSc1ccc2ccccc2n1)NCc1ccco1
[1]; at 26 µM (top of the series)
  activity change, negative = cytotoxicity: -3.39% (inactive)

## CCOC(=O)C1CCN(C(=O)c2ccc(OCC(=O)Nc3ccc(OCC)cc3)c(OC)c2)CC1
[1]; at 26 µM (top of the series)
  activity change, negative = cytotoxicity: -2.45% (inactive)

## O=C(CSc1c2c(nc3ccc(Cl)cc13)CCCC2)NCc1ccccn1
[1]; at 26 µM (top of the series)
  activity change, negative = cytotoxicity: -4.85% (inactive)

## CCCCOc1ccc(NC(=O)COc2ccccc2C(=O)NCCOc2ccccc2)cc1
[1]; at 26 µM (top of the series)
  activity change, negative = cytotoxicity: -30.8% (inactive)

## O=C(CSc1c2c(nc3ccc(Cl)cc13)CCCC2)N1CCCCC1
[1]; at 26 µM (top of the series)
  activity change, negative = cytotoxicity: -5.3% (inactive)

## CCOC(=O)N1CCC(NC(=O)CSc2c3c(nc4ccc(Cl)cc24)CCCC3)CC1
[1]; at 26 µM (top of the series)
  activity change, negative = cytotoxicity: -0.517% (inactive)

## Cc1ccc(CNC(=O)CSc2c3c(nc4ccc(Cl)cc24)CCCC3)cc1
[1]; at 26 µM (top of the series)
  activity change, negative = cytotoxicity: -7.44% (inactive)

## O=C(CSc1c2c(nc3ccc(Cl)cc13)CCCC2)NCc1cccs1
[1]; at 26 µM (top of the series)
  activity change, negative = cytotoxicity: -5.31% (inactive)

## O=C(COc1ccc(C(=O)N2CCN(C(=O)C3CC3)CC2)cc1)Nc1cccc(C(F)(F)F)c1
[1]; at 26 µM (top of the series)
  activity change, negative = cytotoxicity: -7.18% (inactive)

## O=C(CSc1c2c(nc3ccc(Cl)cc13)CCCC2)NCC1(c2ccccc2)CCCC1
[1]; at 26 µM (top of the series)
  activity change, negative = cytotoxicity: -8.09% (inactive)

## CCCNC(=O)CSc1c2c(nc3ccc(Cl)cc13)CCCC2
[1]; at 26 µM (top of the series)
  activity change, negative = cytotoxicity: -1.94% (inactive)

## O=C(COc1ccccc1C(=O)NCc1ccccc1)Nc1ccccc1
[1]; at 26 µM (top of the series)
  activity change, negative = cytotoxicity: -5.85% (inactive)

## O=C(CSc1c2c(nc3ccc(Cl)cc13)CCCC2)NCCCc1ccccc1
[1]; at 26 µM (top of the series)
  activity change, negative = cytotoxicity: -6.44% (inactive)

## COc1ccc(CNC(=O)CSc2c3c(nc4ccc(Cl)cc24)CCCC3)cc1
[1]; at 26 µM (top of the series)
  activity change, negative = cytotoxicity: -6.81% (inactive)

## CN(C(=O)COc1ccc(Cl)cc1C(N)=O)c1ccccc1
[1]; at 26 µM (top of the series)
  activity change, negative = cytotoxicity: 1.16% (inactive)

## O=C(CSc1c2c(nc3ccc(Cl)cc13)CCCC2)NCC1CCCO1 (stereo not given)
[1]; at 26 µM (top of the series)
  activity change, negative = cytotoxicity: -12.2% (inactive)

## COc1ccc(N(Cc2cccs2)C(=O)COc2ccccc2C(=O)Nc2ccccc2)cc1
[1]; at 26 µM (top of the series)
  activity change, negative = cytotoxicity: -7.68% (inactive)

## Cn1c(=O)cc(SCC(=O)NCc2ccco2)c2ccccc21
[1]; at 26 µM (top of the series)
  activity change, negative = cytotoxicity: 0.641% (inactive)

## O=C(CSc1c2c(nc3ccc(Cl)cc13)CCCC2)NC1CCCC1
[1]; at 26 µM (top of the series)
  activity change, negative = cytotoxicity: -7.43% (inactive)

## O=C(COc1ccc(C(=O)N2CCC2)cc1)Nc1cccc(C(F)(F)F)c1
[1]; at 26 µM (top of the series)
  activity change, negative = cytotoxicity: -6.82% (inactive)

## CN(C)c1ccc(NC(=O)COc2ccccc2C(=O)N2CCOCC2)cc1
[1]; at 26 µM (top of the series)
  activity change, negative = cytotoxicity: -0.871% (inactive)

## O=C(CSc1c2c(nc3ccc(Cl)cc13)CCCC2)NC1CCN(Cc2ccccc2)CC1
[1]; at 26 µM (top of the series)
  activity change, negative = cytotoxicity: -3.75% (inactive)

## O=C(CSc1c2c(nc3ccc(Cl)cc13)CCCC2)NCCN1CCOCC1
[1]; at 26 µM (top of the series)
  activity change, negative = cytotoxicity: -9.3% (inactive)

## O=C(CSc1c2c(nc3ccc(Cl)cc13)CCCC2)N1CCC(N2CCCCC2)CC1
[1]; at 26 µM (top of the series)
  activity change, negative = cytotoxicity: -3.26% (inactive)

## Cc1ccc(NC(=O)COc2ccccc2C(=O)NCCN(C)C)cc1
[1]; at 26 µM (top of the series)
  activity change, negative = cytotoxicity: -1.02% (inactive)

## CN(C(=O)COc1ccccc1C(=O)NCCc1ccccc1)c1ccccc1
[2]
  AC50: > 52 µM (inactive)

## O=C(CSc1c2c(nc3ccc(Cl)cc13)CCCC2)NC1CC1
[1]; at 26 µM (top of the series)
  activity change, negative = cytotoxicity: -2.74% (inactive)

## Cc1ccc(CNC(=O)CSc2c3c(nc4ccc(Cl)cc24)CCCC3)o1
[1]; at 26 µM (top of the series)
  activity change, negative = cytotoxicity: -8.3% (inactive)

## O=C(CSc1c2c(nc3cc(Cl)ccc13)CCCC2)N(Cc1ccco1)C1CCCC1
[1]; at 26 µM (top of the series)
  activity change, negative = cytotoxicity: -4.09% (inactive)

## O=C(COc1ccc(C(=O)NC2CCCCC2)cc1)Nc1cccc(C(F)(F)F)c1
[2]
  AC50: > 52 µM (inactive)

## Cn1cc(SCC(=O)NCc2ccco2)c2ccccc21
[1]; at 26 µM (top of the series)
  activity change, negative = cytotoxicity: -10.8% (inactive)

## CCN1CCCC1CNC(=O)CSc1c2c(nc3ccc(Cl)cc13)CCCC2 (stereo not given)
[1]; at 12 µM (top of the series)
  activity change, negative = cytotoxicity: -4.32% (inactive)

## CN(CCNC(=O)CSc1c2c(nc3ccc(Cl)cc13)CCCC2)Cc1ccccc1
[1]; at 26 µM (top of the series)
  activity change, negative = cytotoxicity: -3.21% (inactive)

## COCCNC(=O)CSc1c2c(nc3ccc(Cl)cc13)CCCC2
[1]; at 26 µM (top of the series)
  activity change, negative = cytotoxicity: -7.42% (inactive)

## CC(Sc1c2c(nc3ccc(Cl)cc13)CCCC2)C(=O)NCc1ccco1 (stereo not given)
[1]; at 26 µM (top of the series)
  activity change, negative = cytotoxicity: -3.71% (inactive)

## COc1cc(CNCCCN2CCOCC2)ccc1OCC(=O)Nc1cccc(C(F)(F)F)c1
[2]
  AC50: > 52 µM (inactive)

## NC(=O)C1CCN(C(=O)c2ccc(OCC(=O)Nc3cccc(C(F)(F)F)c3)cc2)CC1
[1]; at 26 µM (top of the series)
  activity change, negative = cytotoxicity: -5.23% (inactive)

## O=C(CSc1c2c(nc3ccc(Cl)cc13)CCCC2)NCCN1CCN(Cc2ccccc2)CC1
[1]; at 26 µM (top of the series)
  activity change, negative = cytotoxicity: -10.3% (inactive)

## CCOC(=O)C1CCN(C(=O)c2ccc(OCC(=O)N3CCOCC3)c(OC)c2)CC1
[1]; at 26 µM (top of the series)
  activity change, negative = cytotoxicity: -7.89% (inactive)

## Cc1cccc(NC(=O)CSc2c3c(nc4ccc(Cl)cc24)CCCC3)n1
[1]; at 26 µM (top of the series)
  activity change, negative = cytotoxicity: -9.51% (inactive)

## CC1(C)CC(NC(=O)c2ccc(OCC(=O)Nc3cccc(C(F)(F)F)c3)cc2)CC(C)(C)N1
[1]; at 26 µM (top of the series)
  activity change, negative = cytotoxicity: -24.7% (inactive)

## CCN(CC)CCCNC(=O)c1ccc(OCC(=O)Nc2ccccc2C(F)(F)F)c(OC)c1
[2]
  AC50: > 52 µM (inactive)

## O=C(CSc1c2c(nc3ccc(Cl)cc13)CCCC2)N1CCN(Cc2ccccc2)CC1
[2]
  AC50: > 52 µM (inactive)

## COC(=O)CCCN(C)C(=O)c1ccc(OCC(=O)Nc2cccc(OC)c2)cc1
[1]; at 26 µM (top of the series)
  activity change, negative = cytotoxicity: -4.85% (inactive)

## O=C(CSc1cccc2cccnc12)NCc1ccco1
[1]; at 26 µM (top of the series)
  activity change, negative = cytotoxicity: -4.54% (inactive)

## O=C(CSc1c2c(nc3ccc(Cl)cc13)CCCC2)Nc1ccccc1
[1]; at 26 µM (top of the series)
  activity change, negative = cytotoxicity: -10.7% (inactive)

## O=C(CSc1c2c(nc3ccc(Cl)cc13)CCCC2)NCc1cccnc1
[1]; at 26 µM (top of the series)
  activity change, negative = cytotoxicity: -3.63% (inactive)

## O=C(CSc1c2c(nc3ccc(Cl)cc13)CCCC2)N1CCNC1=O
[1]; at 26 µM (top of the series)
  activity change, negative = cytotoxicity: -2.06% (inactive)

## COc1ccc(NC(=O)CSc2c3c(nc4ccc(Cl)cc24)CCCC3)cc1
[1]; at 26 µM (top of the series)
  activity change, negative = cytotoxicity: -8.96% (inactive)

## O=C(CSc1c2c(nc3ccc(Cl)cc13)CCCC2)NCc1ccc2c(c1)OCO2
[1]; at 26 µM (top of the series)
  activity change, negative = cytotoxicity: 0.001% (inactive)

## COCCN(Cc1ccco1)C(=O)CSc1c2c(nc3cc(Cl)ccc13)CCCC2
[1]; at 26 µM (top of the series)
  activity change, negative = cytotoxicity: -8.9% (inactive)

## CN(C(=O)COc1ccccc1C(=O)Nc1ccccc1)c1ccccc1
[1]; at 26 µM (top of the series)
  activity change, negative = cytotoxicity: -12.4% (inactive)

## COc1cc(C(=O)NCCCN(C)C)ccc1OCC(=O)Nc1cccc(C(F)(F)F)c1
[1]; at 26 µM (top of the series)
  activity change, negative = cytotoxicity: -18.3% (inactive)

## O=C(CSc1c2c(nc3ccc(Cl)cc13)CCCC2)Nc1ccc(Cl)cc1
[2]
  AC50: > 52 µM (inactive)

## CN(C(=O)COc1ccccc1C(N)=O)c1ccccc1
[1]; at 26 µM (top of the series)
  activity change, negative = cytotoxicity: -5.5% (inactive)

## Cc1cccc(CCNC(=O)CSc2c3c(nc4ccc(Cl)cc24)CCCC3)c1
[1]; at 26 µM (top of the series)
  activity change, negative = cytotoxicity: -5.98% (inactive)

## Cc1ccc2nc(Cl)cc(SCC(=O)NCc3ccco3)c2c1
[1]; at 26 µM (top of the series)
  activity change, negative = cytotoxicity: -11.1% (inactive)

## O=C(CSc1c2c(nc3ccccc13)CCCC2)NCc1ccco1
[1]; at 26 µM (top of the series)
  activity change, negative = cytotoxicity: -6.44% (inactive)

## O=C(CSc1c2c(nc3ccc(Cl)cc13)CCCC2)NCc1ccc(F)cc1
[1]; at 26 µM (top of the series)
  activity change, negative = cytotoxicity: -14.3% (inactive)

## O=C(CSc1c2c(nc3ccc(Cl)cc13)CCCC2)N1CCOCC1
[1]; at 26 µM (top of the series)
  activity change, negative = cytotoxicity: -5.19% (inactive)

## CCOc1ccc(NC(=O)COc2ccc(C(=O)N3CCC(C(N)=O)CC3)cc2OC)cc1
[1]; at 26 µM (top of the series)
  activity change, negative = cytotoxicity: -5.36% (inactive)

## COc1ccc(OCCNC(=O)c2ccccc2OCC(=O)Nc2ccc(NC(C)=O)cc2)cc1
[1]; at 26 µM (top of the series)
  activity change, negative = cytotoxicity: -1.7% (inactive)

## O=C(COc1ccccc1C(=O)NCCOc1ccc(Cl)cc1)Nc1cccc(Cl)c1
[1]; at 26 µM (top of the series)
  activity change, negative = cytotoxicity: -30.7% (inactive)

## Cc1ccc(CNC(=O)CSc2c3c(nc4cc(Cl)ccc24)CCCC3)o1
[1]; at 26 µM (top of the series)
  activity change, negative = cytotoxicity: -11.4% (inactive)

## CN(CCOc1ccccc1)C(=O)c1ccc(OCC(=O)Nc2cccc(C(F)(F)F)c2)cc1
[1]; at 26 µM (top of the series)
  activity change, negative = cytotoxicity: -0.662% (inactive)

## O=C(O)CSc1c2c(nc3cc(C(=O)NCc4cccs4)ccc13)CCCC2
[1]; at 26 µM (top of the series)
  activity change, negative = cytotoxicity: -5.37% (inactive)

## CCN(CC)C(=O)CSc1c2c(nc3ccc(Cl)cc13)CCCC2
[1]; at 26 µM (top of the series)
  activity change, negative = cytotoxicity: 0.809% (inactive)

## O=C(CSc1c2c(nc3ccc(Cl)cc13)CCCC2)NCc1ccco1
[1]; at 26 µM (top of the series)
  activity change, negative = cytotoxicity: -6.1% (inactive)

## O=C(COc1ccc(C(=O)NCC2CCCO2)cc1)Nc1cccc(C(F)(F)F)c1 (stereo not given)
[1]; at 26 µM (top of the series)
  activity change, negative = cytotoxicity: -6.65% (inactive)
